Source: patent publication US6347239B1, “Method of evaluating the efficacy of drug on brain nerve cells” (priority 1998, dated 2002)
“And” between values parts separate entries of the source, which are not always exact repeats. Equal entries are not always repeated.

Tests used:
[1] = test system: primary motor cortex of patients with ALS; assay: Proton MRSI of NAA/Cr in the motor cortex of ALS patients, paired scans; format: in vivo, human
Description: Nineteen patients with a diagnosis of definite or probable ALS, as per the El Escorial Criteria, ^12 were recruited. Each patient underwent paired MRSI examinations. […] Thus, closely paired MRSIs were obtained off medication in 12 subjects who formed a disease control group ALS-C.
Brain proton spectroscopy was performed using a Philips Gyroscan ACS3 operating at 1.5 Tesla (Philips Medical System, Best, The Netherlands). After axial and sagittal scout images and sagittal T1-weighted images were obtained, axial T1-weighted images were acquired with an angulation determined from sagittal T1-weighted images such that the transverse plane was perpendicular to the rostral-caudal axis of the precentral gyrus. These transverse scans were used to select a volume of interest (VOI) centered on the central sulcus, high in the cranium comprised of predominantly cortical brain (FIG. 1A). Cranio-caudal (CC) thickness was 20 mm. Anteroposterior (AP) and left-right (LR) dimensions were adjusted for each patient depending on the skull size and shape to maximize size without including skull. MRSI was performed using a 90°-180°−180° (PRESS) sequence (TR=1750, TE=272, 250×250 mm FOV, 32×32 phase-encoding steps) with prior suppression of water by selective excitation. One patient had all their scans performed with TR=1500. The ROI was repositioned in the identical location in follow up scans of each patient.
Post-processing of data, included a mild Gaussian filter and an inverse two-dimensional Fourier transform of both the water-suppressed and -unsuppressed ^1H-MRS. This was accomplished with XUNSPEC1 software (Philips Medical Systems Best, The Netherlands) running on a Sun SPARC™ station.
The residual water signal was removed using the HSVD (Hankel Singular-Value Decomposition) algorithm which models the time-domain ^1H-MRS data in each voxel with exponentially damped sinusoids. Peaks used to model the water signal were then subtracted from the original data. This algorithm is fully automatic and requires no prior knowledge or operator intervention.
Automated calculation of metabolite peak areas was performed on operator-selected voxels within the motor cortex. Peaks were digitally integrated to yield areas. These values were normalized by dividing them by that of Cr.
The NAA/Cr of the primary motor cortex was determined by averaging the NAA/Cr intensities of voxels located in the precentral gyrus of both hemispheres (FIGS. 1A and 1B). The difference in motor cortex NAA/Cr between two scans (ΔNAA/Cr) obtained approximately 3 weeks apart was determined for each ALS patient in the treated (ALS-R) and control (ALS-C) groups. ΔNAA/Cr was compared between the treated and control groups using a two-sample two-sided Student's t-test. In addition, a two-sided paired Student's t-test was used to evaluate the significance of […] within each group.

[2] = test system: patients with ALS; assay: Clinical status and muscle strength (MRC grades) of ALS patients during therapy; format: in vivo, human
Description: Deltoid and iliopsoas MRC grades improved bilaterally from 4 to 4+.
Several patients agreed to longer term follow up studies. […] Patient #17 was never treated: NAA/Cr decreased from 2.51 to 2.42 after 21 days and further to 2.11 4 months later; their symptoms progressed slowly.

Nc1nc2ccc(OC(F)(F)F)cc2s1 [RILUZOLE, 2-amino-6-trifluoromethoxy-benzothiazole]
average NAA/Cr for the group after therapy ([1]; 11 patients (ALS-R), 24±8 days after initiating therapy, increased from 2.14±0.26, mean±SD, p=0.044): 2.27±0.24 | ΔNAA/Cr = Change in NAA/Cr between MRSI scan #1 and #2 ([1]; ALS-R group, scan just before treatment vs approximately three weeks after starting 50 mg bid, individual patients 1-11 and group mean (n = 11)): −0.011 and 0.111 and 0.438 and 0.295 and 0.118 and 0.234 and −0.021 and −0.251 and 0.222 and 0.290 and 0.034 | NAA/Cr MRSI #2 (NAA/Cr of motor cortex) ([1]; ALS-R group, second scan approximately three weeks after starting 50 mg bid, individual patients 1-11 and group mean (n = 11)): 2.508 and 2.643 and 2.442 and 2.416 and 2.423 and 2.291 and 1.890 and 2.083 and 2.247 and 1.969 and 2.053 | change in NAA/Cr for the treated group with respect to the untreated group (increase) ([1]; ALS-R vs ALS-C, approximately 3 weeks, mean±SE, p=0.008): 0.22±0.095 | NAA/Cr ([1]; patient #2, after 35 days of therapy, from 2.53): 2.64 | NAA/Cr ([1]; patient #2, three months later than the 35-day scan): 2.74 | NAA/Cr ([1]; patient #3, after 18 days of therapy, from 2.00): 2.44 | NAA/Cr ([1]; patient #3, three months later than the 18-day scan): 1.46 | NAA/Cr ([1]; patient #5, after 21 days of therapy, from 2.24): 2.31 | NAA/Cr ([1]; patient #5, one year later): 2.42 | signal from NAA in the motor cortex ([1]; patients with ALS, acute (within 3 weeks) after treatment): increase | clinical status ([2]; patient #2, three months after the 35-day scan): increased strength and fewer cramps | clinical status ([2]; patient #3, three months after the 18-day scan): significant clinical deterioration | clinical status (weakness, predominantly LMN features) ([2]; patient #5, one year later): slowly progressed | symptomatic and functional changes ([2]; patient #11, after 35 days of therapy): improved strength and reduced disability
